This note sets out measurements from publication PMC6934184, “Selective DNA-PKcs inhibition extends the therapeutic index of localized radiotherapy and chemotherapy” (The Journal of Clinical Investigation, 2019).

The assay addresses T1, CDK9/cyclin T1 (Homo sapiens, UniProt P50750).
T1 construct: purchased Thermo Fisher Scientific (Life Technologies) SelectScreen
The assay is described as follows: SelectScreen Adapta. The assay is classed as biochemical. The protocol:
The in vitro kinase selectivity of NU5455 was determined using the SelectScreen Broad Assay Panel (Thermo Fisher Scientific) involving activity and binding assays (Supplemental Table 1). […] Class IA PI3Ks were measured using the p85α subunit.
Kinase [ATP] % Assay Kinase [ATP] % Assay Kinase [ATP] % Assay Kinase [ATP] % Assay
DNA-PK Km app 98.3 Z LATS2 n/a 4.7 L KIT D820E n/a 1.3 L GSK3B (GSK3 beta) Km app -2.5 Z
PIK3C3 (hVPS34) Km app 85.9 A PRKCZ (PKC zeta) Km app 4.7 Z GRK1 n/a 1.3 L BMPR2 n/a -2.5 L
PIK3C2B (PI3K-C2 beta) 10 28.9 A FGFR1 Km app 4.7 Z BRSK2 n/a 1.2 L CDC42 BPB (MRCKB) Km app -2.5 Z
SNF1LK2 Km app 26.6 Z MINK1 Km app 4.6 Z NUAK1 (ARK5) Km app 1.2 A AMPK (A2/B2/G2) n/a -2.6 L
HCK Km app 18.0 Z CSF1R (FMS) Km app 4.3 Z CDK9/cyclin K n/a 1.0 L PRKG1 Km app -2.7 Z
NEK2 Km app 17.8 Z CSNK1G3 (CK1 gamma 3) Km app 4.2 Z NUAK2 n/a 1.0 L KIT T670E n/a -2.8 L
ALK Km app 17.3 Z STK32C (YANK3) n/a 4.2 L CDK2/cyclin O n/a 0.9 L ERBB4 (HER4) Km app -2.8 Z
FGFR3 K650M n/a 16.5 L STK22D (TSSK1) Km app 4.2 Z CAMKK2 (CaMKK beta) n/a 0.9 L PLK4 n/a -2.8 L
SIK3 n/a 16.1 L TAOK3 (JIK) n/a 4.2 L FGFR3 Km app 0.9 Z GRK7 Km app -3.0 Z
LYN A Km app 15.2 Z RPS6KA4 (MSK2) Km app 4.2 Z ULK2 n/a 0.9 L MAPKAPK2 Km app -3.1 Z
BMPR1B (ALK6) n/a 14.5 L PTK2B (FAK2) Km app 4.2 Z KIT D816V n/a 0.9 L FGFR4 Km app -3.1 Z
INSRR (IRR) Km app 14.1 Z CLK2 Km app 4.1 Z CAMK1 (CaMK1) 10 0.8 A CASK n/a -3.1 L
PLK2 Km app 14.1 Z STK24 (MST3) Km app 4.1 Z PTK6 (Brk) Km app 0.7 Z GRK5 Km app -3.2 Z
PRKACA (PKA) Km app 14.0 Z CAMK1D (CaMKI delta) Km app 4.1 Z CAMK2B (CaMKII beta) Km app 0.7 Z EGFR (ErbB1) T790M Km app -3.3 Z
EIF2AK2 (PKR) n/a 13.3 L INSR Km app 4.1 Z ACVR1 (ALK2) n/a 0.7 L PAK4 Km app -3.3 Z
PRKX Km app 12.5 Z IRAK1 Km app 4.0 A ABL1 H396P n/a 0.6 L DAPK3 (ZIPK) Km app -3.4 Z
FGR Km app 12.1 Z SRC N1 Km app 3.9 Z MERTK (cMER) A708S n/a 0.6 L RET M918T n/a -3.5 L
CLK1 Km app 11.7 Z SRPK2 Km app 3.9 Z MAPKAPK5 (PRAK) Km app 0.6 Z PRKCQ (PKC theta) Km app -3.7 Z
MARK3 Km app 11.4 Z RPS6KA6 (RSK4) Km app 3.8 Z AKT1 (PKB alpha) Km app 0.5 Z CAMKK1 (CAMKKA) n/a -3.8 L
PDGFRB (PDGFR beta) Km app 11.0 Z GRK6 Km app 3.7 Z NTRK3 (TRKC) Km app 0.4 Z FLT3 D835Y Km app -3.9 Z
PRKCN (PKD3) Km app 10.7 Z PKN1 (PRK1) Km app 3.6 Z ZAP70 Km app 0.3 Z ROCK2 Km app -4.1 Z
STK16 (PKL12) n/a 10.5 L MAP3K8 (COT) 100 3.5 Z CSNK1A1 (CK1 alpha 1) Km app 0.3 Z CHUK (IKK alpha) Km app -4.2 A
FES (FPS) Km app 10.4 Z FLT4 (VEGFR3) Km app 3.5 Z MYLK (MLCK) n/a 0.2 L AXL Km app -4.2 Z
ABL1 Km app 10.4 Z GRK4 Km app 3.5 Z MKNK2 (MNK2) n/a 0.2 L PIM2 Km app -4.3 Z
MUSK Km app 10.3 Z FRK (PTK5) Km app 3.4 Z AMPK (A1/B1/G3) n/a 0.2 L PAK1 Km app -4.4 Z
MAPK1 (ERK2) Km app 10.1 Z FYN A n/a 3.3 L MAP3K2 (MEKK2) n/a 0.1 L BMPR1A (ALK3) n/a -4.4 L
BRAF 100 9.9 Z CDK1/cyclin A2 n/a 3.3 L CDK8/cyclin C n/a 0.1 L STK4 (MST1) Km app -4.4 Z
IGF1R Km app 9.7 Z KIT V559D T670I n/a 3.1 L MARK2 Km app 0.1 Z PRKCH (PKC eta) Km app -4.6 Z
MAPK14 (p38 alpha) Km app 9.7 Z SPHK2 10 3.1 A ICK n/a 0.0 L SGKL (SGK3) Km app -4.6 Z
LCK Km app 9.6 Z FGFR3 G697C n/a 3.1 L FGFR2 Km app 0.0 Z PI4KB (PI4K beta) Km app -4.7 A
MAPK11 (p38 beta) Km app 9.5 Z RIPK2 n/a 3.1 L AKT2 (PKB beta) Km app 0.0 Z PRKCE (PKC epsilon) Km app -4.9 Z
SRC Km app 9.5 Z PAK6 Km app 3.0 Z EPHB2 Km app -0.1 Z PHKG1 Km app -5.0 Z
CHEK1 (CHK1) Km app 9.3 Z LYN B Km app 3.0 Z TGFBR2 n/a -0.1 L PDGFRA D842V Km app -5.0 Z
CAMK2D (CaMKII delta) Km app 9.3 Z DAPK2 n/a 2.9 L TEK (Tie2) Km app -0.1 Z PRKG2 (PKG2) Km app -5.1 Z
PLK1 Km app 9.2 Z EPHA4 Km app 2.9 Z AURKA (Aurora A) Km app -0.1 Z TYRO3 (RSE) Km app -5.1 Z
RET Y791F Km app 9.2 Z PIK3CG (p110 gamma) Km app 2.9 A KIT D816H n/a -0.2 L TAOK2 (TAO1) Km app -5.1 Z
FLT3 Km app 9.1 Z HIPK1 (Myak) Km app 2.8 Z KIT N822K n/a -0.2 L EPHB4 Km app -5.3 Z
MAPK10 (JNK3) 100 9.0 Z ADRBK2 (GRK3) Km app 2.8 Z PRKACG (PRKAC gamma) n/a -0.2 L AURKC (Aurora C) Km app -5.4 Z
CSNK2A2 (CK2 alpha 2) Km app 8.7 Z STK17B (DRAK2) n/a 2.7 L TEK (TIE2) Y1108F n/a -0.3 L JAK1 Km app -5.7 Z […]

As usually defined, the inhibition is the relative decrease from the control value, in per cent.

T1 sequence (P50750 whole entry): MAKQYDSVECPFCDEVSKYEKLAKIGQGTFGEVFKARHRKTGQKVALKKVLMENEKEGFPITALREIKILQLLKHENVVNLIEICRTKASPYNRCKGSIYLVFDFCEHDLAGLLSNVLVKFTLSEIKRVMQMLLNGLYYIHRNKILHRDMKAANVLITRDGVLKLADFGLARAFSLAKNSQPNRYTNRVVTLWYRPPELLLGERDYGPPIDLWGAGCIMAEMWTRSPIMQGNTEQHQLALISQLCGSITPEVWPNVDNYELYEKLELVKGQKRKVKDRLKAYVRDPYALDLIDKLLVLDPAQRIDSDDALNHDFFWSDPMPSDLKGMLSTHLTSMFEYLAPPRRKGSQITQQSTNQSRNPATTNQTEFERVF
T1 sequence (O60563 whole entry partner): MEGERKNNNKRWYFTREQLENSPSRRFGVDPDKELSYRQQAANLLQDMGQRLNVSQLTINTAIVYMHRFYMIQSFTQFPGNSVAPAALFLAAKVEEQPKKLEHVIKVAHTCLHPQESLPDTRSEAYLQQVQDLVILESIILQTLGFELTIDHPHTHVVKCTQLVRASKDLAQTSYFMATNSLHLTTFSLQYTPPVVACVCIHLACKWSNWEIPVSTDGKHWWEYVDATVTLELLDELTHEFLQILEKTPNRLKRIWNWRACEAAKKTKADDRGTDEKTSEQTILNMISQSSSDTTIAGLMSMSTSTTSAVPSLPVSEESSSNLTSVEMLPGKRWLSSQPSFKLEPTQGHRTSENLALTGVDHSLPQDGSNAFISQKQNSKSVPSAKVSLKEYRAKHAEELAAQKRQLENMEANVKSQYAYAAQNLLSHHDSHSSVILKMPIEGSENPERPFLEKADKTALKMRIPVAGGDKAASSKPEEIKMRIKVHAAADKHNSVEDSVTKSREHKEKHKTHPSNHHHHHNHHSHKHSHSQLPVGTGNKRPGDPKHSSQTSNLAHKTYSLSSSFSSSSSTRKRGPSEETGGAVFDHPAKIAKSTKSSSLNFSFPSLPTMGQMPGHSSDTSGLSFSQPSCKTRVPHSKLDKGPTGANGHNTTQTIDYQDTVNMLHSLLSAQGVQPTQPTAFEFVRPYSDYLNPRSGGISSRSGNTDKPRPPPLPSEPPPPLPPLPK

Regarding `CN(C(=O)CN1CCOCC1)c1ccc2sc3c(-c4cccc5c(=O)cc(N6CC7CCC(C6)O7)oc45)cccc3c2c1` [NU5455], the inhibition at 1 µM is -1.4%.
